Measurements reported in publication PMC4787807 (Nucleic Acids Research, 2015).

Molecular target: EAV nsp9 (Equine arteritis virus Bucyrus, UniProt P19811)
Assay: covalent labelling, tryptic digest and nano-LC-MS/MS

Sequence of EAV nsp9 (P19811 1678-2370): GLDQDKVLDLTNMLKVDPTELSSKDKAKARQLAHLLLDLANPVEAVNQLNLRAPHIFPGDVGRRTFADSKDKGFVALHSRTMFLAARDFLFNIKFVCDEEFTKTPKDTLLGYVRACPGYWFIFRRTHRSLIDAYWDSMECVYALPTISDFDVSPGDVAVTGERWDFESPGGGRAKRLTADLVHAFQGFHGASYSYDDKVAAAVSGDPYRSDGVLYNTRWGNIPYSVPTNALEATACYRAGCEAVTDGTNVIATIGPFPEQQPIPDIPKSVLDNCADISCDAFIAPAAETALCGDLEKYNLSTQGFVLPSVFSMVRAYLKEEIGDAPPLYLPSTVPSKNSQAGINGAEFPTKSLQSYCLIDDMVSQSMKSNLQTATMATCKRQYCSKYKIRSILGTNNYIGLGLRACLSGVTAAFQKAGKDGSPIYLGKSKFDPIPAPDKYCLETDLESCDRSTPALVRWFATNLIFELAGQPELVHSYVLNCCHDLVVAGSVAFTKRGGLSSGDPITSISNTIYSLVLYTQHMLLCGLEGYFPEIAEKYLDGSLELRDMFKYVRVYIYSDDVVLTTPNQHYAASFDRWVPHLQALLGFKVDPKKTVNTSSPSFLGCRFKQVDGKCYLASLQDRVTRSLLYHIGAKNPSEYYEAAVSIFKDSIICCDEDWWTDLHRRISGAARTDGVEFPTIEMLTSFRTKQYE

SMILES: Nc1nc2c(ncn2[C@@H]2O[C@H](COC(=O)c3ccc(S(=O)(=O)F)cc3)[C@@H](O)[C@H]2O)c(=O)[nH]1 [FSBG, 5′-(4-fluorosulfonylbenzoyl)guanosine]
- covalent labelling, tryptic digest and nano-LC-MS/MS: seven modified peptides representing five distinct nsp9 regions could be assigned
